Measurements taken from article PMC6691772, “Novel phthalimide based analogues: design, synthesis, biological evaluation, and molecular docking studies” (Journal of Enzyme Inhibition and Medicinal Chemistry, 2019).
Values after ≈ are worked out from the molar mass of the structure shown.

Experiments:
A. fumigatus RCMB 002568 [1] = experiment: Agar well diffusion, inhibition zone; assay type: cell-based, Aspergillus fumigatus; design: key to Mean diameter of inhibition zone (Mean ± SEM): –: -: No activity under the screening conditions; details: mean of three values; for Mean diameter of inhibition zone (Mean ± SEM): 1 mg/mL; for zone of inhibition at 1000 µg/mL: Aspergillus fumigatus, RCMB002568, 1 mg/mL, read-out: Mean diameter of inhibition zone (Mean ± SEM)
[2] = system: (THLE-2) normal liver cell line; experiment: Cytotoxic screening on normal liver cells; assay type: cell-based; details: Homo sapiens, mean of three values, read-out: IC50 (Mean ± SEM)
[3] = system: P. aeruginosa RCMB 010043; experiment: Agar well diffusion, inhibition zone; assay type: cell-based, Pseudomonas aeruginosa; design: key to Mean diameter of inhibition zone (Mean ± SEM): –: -: No activity under the screening conditions; details: mean of three values; for zone of inhibition at 1000 µg/mL: Pseudomonas aeruginosa, RCMB010043, 1 mg/mL, read-out: Mean diameter of inhibition zone (Mean ± SEM); for Mean diameter of inhibition zone (Mean ± SEM): 1 mg/mL
[4] = system: human liver cancer cell line (HepG-2); experiment: MTT anticancer assay; assay type: cell-based; details: HepG2, HePG-2 cancer liver cell line, mean of three values, read-out: IC50 (Mean ± SEM)
C. albicans RCMB 005036 = experiment: Agar well diffusion, inhibition zone; assay type: cell-based, Candida albicans; design: key: –: -: No activity under the screening conditions; details: 1 mg/mL, mean of three values
B. subtilis RCMB 010067 [5] = experiment: Agar well diffusion, inhibition zone; assay type: cell-based, Bacillus subtilis; design: key to Mean diameter of inhibition zone (Mean ± SEM): –: -: No activity under the screening conditions; details: mean of three values; for zone of inhibition at 1000 µg/mL: Bacillus subtilis, RCMB010067, 1 mg/mL, read-out: Mean diameter of inhibition zone (Mean ± SEM); for Mean diameter of inhibition zone (Mean ± SEM): 1 mg/mL
E. coli RCMB 010052 [6] = experiment: Agar well diffusion, inhibition zone; assay type: cell-based, Escherichia coli; design: key to Mean diameter of inhibition zone (Mean ± SEM): –: -: No activity under the screening conditions; details: mean of three values; for zone of inhibition at 1000 µg/mL: Escherichia coli, RCMB010052, 1 mg/mL, read-out: Mean diameter of inhibition zone (Mean ± SEM); for Mean diameter of inhibition zone (Mean ± SEM): 1 mg/mL
S. pneumonia RCMB 010010 [7] = experiment: Agar well diffusion, inhibition zone; assay type: cell-based, Streptococcus pneumoniae; design: key to Mean diameter of inhibition zone (Mean ± SEM): –: -: No activity under the screening conditions; details: mean of three values; for zone of inhibition at 1000 µg/mL: Streptococcus pneumoniae, RCMB010010, 1 mg/mL, read-out: Mean diameter of inhibition zone (Mean ± SEM); for Mean diameter of inhibition zone (Mean ± SEM): 1 mg/mL
A. fumigatus RCMB 002568 [8] = experiment: Minimum inhibitory concentration, modified agar well diffusion; assay type: cell-based; details: Aspergillus fumigatus, RCMB002568, mean of three values, read-out: MIC (Mean ± SEM)
S. pneumonia RCMB 010010 [9] = experiment: as above; assay type: cell-based; details: Streptococcus pneumoniae, RCMB010010, mean of three values, read-out: MIC (Mean ± SEM)
[10] = system: P. aeruginosa RCMB 010043; experiment: as above; assay type: cell-based; details: Pseudomonas aeruginosa, RCMB010043, mean of three values, read-out: MIC (Mean ± SEM)
B. subtilis RCMB 010067 [11] = experiment: as above; assay type: cell-based; details: Bacillus subtilis, RCMB010067, mean of three values, read-out: MIC (Mean ± SEM)
E. coli RCMB 010052 [12] = experiment: as above; assay type: cell-based; details: Escherichia coli, RCMB010052, mean of three values, read-out: MIC (Mean ± SEM)
[13] = system: tested bacterial and fungal strains; experiment: Antimicrobial screening, summary over all tested strains; assay type: cell-based; details: 1 mg/mL
Text: All bacterial and fungal strains were received from the culture collection of the Regional Center for Mycology and Biotechnology (RCMB), Al-Azhar University, Cairo, Egypt. All target derivatives were screened in-vitro opposite to various kinds of bacteria, Gram-positive bacteria (Streptococcus pneumoniae and Bacillus subtilis) and Gram-negative bacteria (Pseudomonas aeruginosa and Escherichia coli) and for their Antifungal activities against Aspergillus fumigatus and Candida albicans, respectively. Ampicillin and gentamycin were used as standard antibacterial drugs while amphotericin B was used as reference antifungal drug. The diameter of inhibition zone (mm) was measured for the biological activity using the diffusion technique. The promising compounds were further investigated to evaluate their antimicrobial activity expressed in terms of minimum inhibitory concentration (MIC) using the modified agar well diffusion method.
The newly prepared targets were subjected for in-vitro antibacterial screening against Gram-positive bacteria (Streptococcus pneumonia and Bacillus subtilis) and Gram-negative bacteria (Pseudomonas aeruginosa and Escherichia coli). […] The compounds’ solutions of concentrations (1 mg/mL) were evaluated against the different microorganism’s and the inhibition zone (IZ) used diameter in mm for the biologically activity (agar well diffusion method).

IC50 [4] [µg/mL]	melting point [°C]	MIC (A. fumigatus RCMB 002568 [8]) [µg/mL]	MIC (S. pneumonia RCMB 010010 [9]) [µg/mL]	MIC [10] [µg/mL]	MIC (B. subtilis RCMB 010067 [11]) [µg/mL]	MIC (E. coli RCMB 010052 [12]) [µg/mL]	SMILES	Mean diameter of inhibition zone (Mean ± SEM) (A. fumigatus RCMB 002568 [1])	IC50 [2] [µg/mL]	zone of inhibition at 1000 µg/mL [3] [mm]	Mean diameter of inhibition zone (Mean ± SEM) (C. albicans RCMB 005036)	zone of inhibition at 1000 µg/mL (B. subtilis RCMB 010067 [5]) [mm]	zone of inhibition at 1000 µg/mL (E. coli RCMB 010052 [6]) [mm]	zone of inhibition at 1000 µg/mL (S. pneumonia RCMB 010010 [7]) [mm]	zone of inhibition at 1000 µg/mL (A. fumigatus RCMB 002568 [1]) [mm]	Mean diameter of inhibition zone (Mean ± SEM) [3]	antimicrobial activity, overall [13]	Mean diameter of inhibition zone (Mean ± SEM) (B. subtilis RCMB 010067 [5])	Mean diameter of inhibition zone (Mean ± SEM) (E. coli RCMB 010052 [6])	Mean diameter of inhibition zone (Mean ± SEM) (S. pneumonia RCMB 010010 [7])
12.6 ± 0.13 (≈ 44 µM)	128 to 129						CCOC(=O)C(C#N)=NNN1C(=O)c2ccccc2C1=O [Compound 3, Ethyl 2-cyano-2-(2-(1,3-dioxoisoindolin-2-yl)hydrazono)acetate]	–	716.37 ± 0.1 (≈ 2500 µM)	15.3 ± 0.7	–	17.3 ± 0.6	17.1 ± 0.5	18.3 ± 0.7						
7.5 ± 0.84 (≈ 21.5 µM)	320	3.9 ± 0.39 (≈ 11.2 µM)	3.9 ± 1.24 (≈ 11.2 µM)	15.6 ± 1.25 (≈ 44.8 µM)	7.81 ± 1.16 (≈ 22.4 µM)	1.95 ± 1.49 (≈ 5.58 µM)	N#Cc1nnc2c(N=NN3C(=O)c4ccccc4C3=O)c(O)nn2c1N [Compound 16, 4-Amino-8-[(1,3-dioxo-1,3-dihydro-2H-isoindol-2-yl)diazenyl]-7-hydroxy-pyrazolo[5,1-c][1,2,4]triazine-3-carbonitrile]		820.58 ± 0.18 (≈ 2350 µM)	18.1 ± 0.6	–	18.8 ± 1.4	23.7 ± 0.7	22.8 ± 0.7	22.9 ± 1.3					
4.63 ± 1.07 (≈ 5.71 µM)							CC[C@]1(O)C[C@@H]2CN(CCc3c([nH]c4ccccc34)[C@@](C(=O)OC)(c3cc4c(cc3OC)N(C)[C@H]3[C@@](O)(C(=O)OC)[C@H](OC(C)=O)[C@]5(CC)C=CCN6CC[C@]43[C@@H]65)C2)C1 [Vinblastine, reference compound]		2146.1 ± 0.1 (≈ 2650 µM)											
				3.9 ± 0.15 (≈ 11.2 µM)		0.98 ± 1.05 (≈ 2.8 µM)	CC1(C)S[C@@H]2[C@H](NC(=O)[C@H](N)c3ccccc3)C(=O)N2[C@H]1C(=O)O [Ampicillin, reference compound]	–			–	26.4 ± 0.5		23.8 ± 0.71		–			–	
9.92 ± 1.28 (≈ 25.1 µM)	> 300	15.6 ± 1.05 (≈ 39.5 µM)	3.9 ± 0.01 (≈ 9.87 µM)	62.5 ± 0.71 (≈ 158 µM)	3.9 ± 1.38 (≈ 9.87 µM)	3.9 ± 1.24 (≈ 9.87 µM)	CCOC(=O)c1nnc2c(N=NN3C(=O)c4ccccc4C3=O)c(O)nn2c1C [Compound 17, Ethyl 8-[(1,3-dioxo-1,3-dihydro-2H-isoindol-2-yl)diazenyl]-7-hydroxy-4-methyl-pyrazolo[5,1-c][1,2,4]triazine-3-carboxylate]		658.13 ± 0.25 (≈ 1660 µM)	15.5 ± 1.2	–	20.2 ± 1.2	20.5 ± 1.3	21.9 ± 1.2	16.9 ± 1.2					
		1.95 ± 0.03 (≈ 4.08 µM)					CNC(C)C1CCC(N)C(OC2C(N)CC(N)C(OC3OCC(C)(O)C(NC)C3O)C2O)O1 (centres unmarked) [Gentamycin, reference compound]	–		19.7 ± 0.6	–		24.9 ± 1.5					–		–
23.6 ± 1.32 (≈ 63.4 µM)	196 to 198						O=C1c2ccccc2C(=O)N1N=Nc1c(O)nn2cc(-c3ccccc3)[nH]c12 [Compound 7, 2-((6-Hydroxy-2-phenyl-1H-imidazo[1,2-b]pyrazol-7-yl)diazenyl)isoindoline-1,3-dione]	–	662.58 ± 0.17 (≈ 1780 µM)	16.9 ± 1.2	–	21.5 ± 1.5	11.9 ± 1.3	12.7 ± 0.6						
9.11 ± 1.02 (≈ 26.2 µM)	302	3.9 ± 1 (≈ 11.2 µM)	7.81 ± 1.01 (≈ 22.4 µM)	62.5 ± 1.06 (≈ 179 µM)	0.98 ± 1.18 (≈ 2.81 µM)	3.9 ± 0.03 (≈ 11.2 µM)	N#Cc1cnc2c(N=NN3C(=O)c4ccccc4C3=O)c(O)nn2c1N [Compound 12, 7-Amino-3-[(1,3-dioxo-1,3-dihydro-2H-isoindol-2-yl)diazenyl]-2-hydroxy-pyrazolo[1,5-a]pyrimidine-6-carbonitrile]		793.56 ± 0.31 (≈ 2280 µM)	15.8 ± 1.5	–	24.3 ± 0.6	21.8 ± 1.3	18.6 ± 1.2	20.7 ± 1.2					
5.6 ± 1.57 (≈ 14.2 µM)	210 to 211	1.95 ± 0.34 (≈ 4.94 µM)	3.9 ± 0.2 (≈ 9.89 µM)	15.6 ± 0.26 (≈ 39.6 µM)	1.95 ± 1.3 (≈ 4.94 µM)	0.49 ± 1.08 (≈ 1.24 µM)	CSc1c(C#N)c(N)nc2c(N=NN3C(=O)c4ccccc4C3=O)c(O)nn12 [Compound 9, 5-Amino-3-((1,3-dioxo-1,3-dihydro-2H-isoindol-2-yl)diazenyl)-2-hydroxy-7-(methylthio)pyrazolo[1,5-a]pyrimidine-6-carbonitrile]		754.31 ± 0.2 (≈ 1910 µM)	17.2 ± 1.3	–	23.2 ± 1.5	24 ± 1.3	22.2 ± 0.6	16.6 ± 1.3					
16.7 ± 0.26 (≈ 51.1 µM)	136 to 138						CN(C)C=NC1=NNC(=O)C1=NNN1C(=O)c2ccccc2C1=O [Compound 10, N'-{4-[(1,3-dioxo-1,3-dihydro-2H-isoindol-2-yl)hydrazono]-5-oxo-4,5-dihydro-1H-pyrazol-3-yl}-N,N-dimethylimidoformamide]		688.29 ± 0.11 (≈ 2100 µM)	12.3 ± 0.4	–	11.3 ± 0.7	22.6 ± 1.5	14.2 ± 0.4	12.1 ± 1.5					
14.4 ± 0.37 (≈ 46.3 µM)	180 to 182						NC1=Nc2c(N=NN3C(=O)c4ccccc4C3=O)c(O)nn2C1 [Compound 6, 2-((2-Amino-6-hydroxy-3H-imidazo[1,2-b]pyrazol-7-yl)diazenyl)isoindoline-1,3-dione]	–	652.46 ± 0.03 (≈ 2100 µM)	11.9 ± 1.3	–	17.8 ± 1.2	16.3 ± 0.5	20.8 ± 1.5						

SMILES	IC50 [4] [µg/mL]	melting point [°C]	MIC (A. fumigatus RCMB 002568 [8]) [µg/mL]	MIC (S. pneumonia RCMB 010010 [9]) [µg/mL]	MIC [10] [µg/mL]	MIC (B. subtilis RCMB 010067 [11]) [µg/mL]	MIC (E. coli RCMB 010052 [12]) [µg/mL]	Mean diameter of inhibition zone (Mean ± SEM) (A. fumigatus RCMB 002568 [1])	IC50 [2] [µg/mL]	zone of inhibition at 1000 µg/mL [3] [mm]	Mean diameter of inhibition zone (Mean ± SEM) (C. albicans RCMB 005036)	zone of inhibition at 1000 µg/mL (B. subtilis RCMB 010067 [5]) [mm]	zone of inhibition at 1000 µg/mL (E. coli RCMB 010052 [6]) [mm]	zone of inhibition at 1000 µg/mL (S. pneumonia RCMB 010010 [7]) [mm]	zone of inhibition at 1000 µg/mL (A. fumigatus RCMB 002568 [1]) [mm]	Mean diameter of inhibition zone (Mean ± SEM) [3]	antimicrobial activity, overall [13]	Mean diameter of inhibition zone (Mean ± SEM) (B. subtilis RCMB 010067 [5])	Mean diameter of inhibition zone (Mean ± SEM) (E. coli RCMB 010052 [6])	Mean diameter of inhibition zone (Mean ± SEM) (S. pneumonia RCMB 010010 [7])
Nc1c(C(=O)c2ccccc2)cnc2c(N=NN3C(=O)c4ccccc4C3=O)c(O)nn12 [Compound 14, 2-[(7-Amino-6-benzoyl-2-hydroxypyrazolo[1,5-a]pyrimidin-3-yl)diazenyl]-1H-isoindole-1,3(2H)-dione]	34.8 ± 1.26 (≈ 81.4 µM)	295 to 297						–	725.44 ± 0.15 (≈ 1700 µM)		–					–	no antimicrobial activities	–	–	–
